Laboratory results taken from patent US11236086B2, “Substituted pyrrolopyridines as inhibitors of activin receptor-like kinase” (BLUEPRINT MEDICINES CORPORATION, priority 2017, dated 2022).

target: T1, ALK2R206H (mutant ALK2, N-terminally tagged with GST) (Homo sapiens, UniProt Q04771, R206H); experiment: ALK binding assay (LANTHASCREEN TR-FRET competitive binding, displacement of Kinase Tracer 178); details: read-out: Binding Assay (IC50 class)
T1 construct: purchased Carna Bioscience or ThermoFisher 09-148 or PV6232
T1 sequence (Q04771 21-509 R206H): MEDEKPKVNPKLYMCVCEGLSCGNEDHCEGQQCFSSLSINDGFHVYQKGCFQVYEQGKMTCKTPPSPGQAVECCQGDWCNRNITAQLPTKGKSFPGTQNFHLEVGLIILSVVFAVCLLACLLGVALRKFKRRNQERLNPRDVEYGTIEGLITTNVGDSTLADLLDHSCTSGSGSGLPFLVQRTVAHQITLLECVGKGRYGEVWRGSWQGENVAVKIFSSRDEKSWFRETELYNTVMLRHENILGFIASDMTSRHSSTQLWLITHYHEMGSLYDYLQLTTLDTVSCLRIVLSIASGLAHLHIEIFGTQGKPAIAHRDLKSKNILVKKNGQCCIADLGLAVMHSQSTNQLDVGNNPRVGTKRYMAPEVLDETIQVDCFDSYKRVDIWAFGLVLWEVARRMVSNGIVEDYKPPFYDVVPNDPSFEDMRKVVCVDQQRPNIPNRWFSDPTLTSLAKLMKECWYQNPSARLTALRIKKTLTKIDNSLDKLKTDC
Outline: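 Competitive displacement of Kinase Tracer 178 (50 nM) from N-terminally GST-tagged mutant ALK2 R206H (2-5 nM) by compound, detected by TR-FRET with Eu-anti-GST antibody (4-10 nM). 30 min room temperature incubation, 1% DMSO final; normalized signal fitted to 4-parameter log dose response for IC50.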

IC50 [nM]	Compound
≤ 10	COCCOc1ccc(-c2cc3c(N4CCN(C(=O)C5CC5)CC4)ccnc3[nH]2)cc1 [Compound 286]
≤ 10	Cc1c(-c2cc3c(N4CCN(C(=O)[C@H]5CC[C@H](C#N)CC5)CC4)ccnc3[nH]2)cnn1C(C)C [Compound 423]
≤ 10	CCOC(=O)N1CCN(c2ccnc3[nH]c(-c4ncc(CC)s4)cc23)CC1 [Compound 113]
≤ 10	Cc1nc(-c2[nH]c3nccc(N4CCN(C(=O)OC5COC5)CC4)c3c2Cl)cn1C [Compound 331]
≤ 10	Cn1cnc(-c2[nH]c3nccc(N4CCN(C(=O)O[C@@H]5CCC5(F)F)CC4)c3c2C#N)c1 [Compound 368]
≤ 10	Cn1cnc(-c2cc3c(N4CCN(C(=O)OC5CC5)CC4)ccnc3[nH]2)c1 [Compound 29]
10 to 50	O=C(OC1COC1)N1CCN(c2ccnc3[nH]c(-c4cn[nH]c4C4CC4)cc23)CC1 [Compound 220]

The remaining lines, values behind:

Compound	IC50 [nM]
N#CC1(c2ccc(-c3cc4c(N5CCN(C(=O)C6CC6)CC5)ccnc4[nH]3)cc2)CC1 [Compound 241]	≤ 10
CCOC(=O)N1CCN(c2ccnc3[nH]c(-c4ccc(C#N)cc4)cc23)CC1 [Compound 53]	≤ 10
Cc1nn(C)cc1-c1cc2c(N3CCN(C(=O)OC4COC4)CC3)ccnc2[nH]1 [Compound 151]	≤ 10
CCOC(=O)N1CCN(c2ccnc3[nH]c(-c4nc(C)cs4)cc23)CC1 [Compound 48]	≤ 10
CCN1CCN(c2ccc(-c3cc4c(N5CCN(C(=O)C6CC6)CC5)ccnc4[nH]3)nc2)CC1 [Compound 424]	≤ 10
Cc1nc(-c2cc3c(N4CCN(C(=O)O[C@@H]5CCC5(F)F)CC4)ccnc3[nH]2)cn1C [Compound 326]	≤ 10
Cn1cc(-c2[nH]c3nccc(N4CCN(C(=O)C5CC5)CC4)c3c2Br)cn1 [Compound 320]	≤ 10
COC1(c2ccc(-c3cc4c(N5CCN(C(=O)OC6COC6)CC5)ccnc4[nH]3)nc2)CCN(C[C@H](C)F)CC1 [Compound 478]	≤ 10
CCOC(=O)N1CCN(c2ccnc3[nH]c(-c4cnn(C(F)F)c4)c(C#N)c23)CC1 [Compound 258]	≤ 10
CC(C)(C#N)c1ccc(-c2cc3c(N4CCN(C(=O)C5CC5)CC4)ccnc3[nH]2)cc1 [Compound 252]	≤ 10
Cc1nc(-c2cc3c(N4CCN(C(=O)OC5COC5)CC4)ccnc3[nH]2)cn1C [Compound 147]	≤ 10
CCOc1ccc(-c2cc3c(N4CCN(C(=O)C5CC5)CC4)ccnc3[nH]2)cc1 [Compound 127]	10 to 50
Cc1c(-c2cnn(C)c2)[nH]c2nccc(N3CCN(C(=O)OC4CCC4)CC3)c12 [Compound 140]	≤ 10
O=C(OC1COC1)N1CCN(c2ccnc3[nH]c(-c4ccccn4)cc23)CC1 [Compound 66]	≤ 10
Cn1cnc(-c2[nH]c3nccc(N4CCN(C(=O)O[C@H]5C[C@@H](F)C5)CC4)c3c2C#N)c1 [Compound 296]	≤ 10

target: T2, human ALK2 R206H (Homo sapiens, UniProt Q04771, R206H); experiment: Cell-based ALK2-R206H cell activity assay (Smad1-Ser463/Ser465 phosphorylation by AlphaLISA in HEK293-ALK2-R206H cells); details: phospho-Smad1 AlphaLISA, read-out: Cell Line (Cell Assay, IC50 class)
T2 construct: expressed in transfected cells; host or cells: HEK293 (ATCC CRL1573), lentivirus transduction, blasticidin selection
T2 sequence (Q04771 21-509 R206H): T1 sequence (Q04771 21-509 R206H)
Protocol: Example 11. Cell-Based ALK2-R206H Cell Activity Assay
A HEK293 (ATCC, Cat No. CRL1573) based stable cell line expressing human ALK2 R206H cDNA (synthesized by GeneScript, Piscataway, N.J.) and a FLAG tag at the C-terminus was generated by lentivirus transduction and subsequent blasticidin (Life Technologies, Cat No. A1113902) selection at 10 μg/ml for >2 wks. This cell line was named HEK293-ALK2-R206H.
B. Measurement of Smad1-Ser463/Ser465 Phosphorylation by AlphaLISA
HEK293-ALK2-R206H cells were grown, harvested, and then resuspended in serum-free, phenol red-free DMEM high glucose media (Life Technologies, Cat No. 31053). The media also contained 50 units/ml penicillin and 50 μg/ml streptomycin (Life Technologies, Cat. No. 15070-063). HEK293-ALK2-R206H cells were then plated in white opaque 384-wells microplates (2×10^4/well) (OptiPlate-384, PerkinElmer, Waltham, Mass., Cat No. 6007299) overnight (>16h) at 37° C. 5% CO2 for use in the assay.
Test compounds were first diluted to 4 mM or 0.4 mM and then serially diluted 3-fold into 10 different concentrations using DMSO. Each concentration of compound was further diluted 40-fold with phenol red-free DMEM (Life Technologies, Cat No. 31053). 2 μl of the diluted compounds were then dispensed into the HEK293-ALK2-R206H cell-containing wells of the microplates in duplicates. In this way, each compound was tested in 10 doses (3-fold serial dilution with the top concentration being 10 μM or 1 μM). Liquid handling was achieved using a Bravo Automated Liquid Handling Platform (Agilent Technologies). DMSO without compound was used as a negative control. The positive control was 1 μM LDN193189, a known bone morphogenetic protein (BMP inhibitor).
After 2-3 hours of incubation with test compound or control, the cells were lysed and signal was developed using ALPHASCREEN® SUREFIRE® SMAD1 (p-Ser463/465) cellular kinase assay kit (PerkinElmer, Cat No. TGRSM1S10K) following the manufacturer's recommended protocol. The microplates were read using Perkin Elmer ENVISION® plate reader (emission […]). The signal reflected the level of phospho-Ser/463/465-Smad1 in the lysate. The raw data were plotted using the DMSO negative and LDN193189 positive controls as the 0% and 100% inhibition, respectively. The 10-point dose response curve was used to calculate the IC50 values.
The results of this assay are shown in Table 3 in the column labeled “Cell Assay” wherein “A” represents an IC50 of less than or equal to 100 nM; “B” an IC50 of greater than 100 nM and less than or equal to 500 nM; “C” an IC50 of greater than 500 nM. Blank values in the table indicate that the particular compound was not tested in this assay.

IC50 [nM]	Compound
100 to 500	COCCOc1ccc(-c2cc3c(N4CCN(C(=O)C5CC5)CC4)ccnc3[nH]2)cc1 [Compound 286]
≤ 100	Cc1c(-c2cc3c(N4CCN(C(=O)[C@H]5CC[C@H](C#N)CC5)CC4)ccnc3[nH]2)cnn1C(C)C [Compound 423]
≤ 100	CCOC(=O)N1CCN(c2ccnc3[nH]c(-c4ncc(CC)s4)cc23)CC1 [Compound 113]
≤ 100	Cc1nc(-c2[nH]c3nccc(N4CCN(C(=O)OC5COC5)CC4)c3c2Cl)cn1C [Compound 331]
≤ 100	Cn1cnc(-c2[nH]c3nccc(N4CCN(C(=O)O[C@@H]5CCC5(F)F)CC4)c3c2C#N)c1 [Compound 368]
≤ 100	Cn1cnc(-c2cc3c(N4CCN(C(=O)OC5CC5)CC4)ccnc3[nH]2)c1 [Compound 29]
> 500	O=C(OC1COC1)N1CCN(c2ccnc3[nH]c(-c4cn[nH]c4C4CC4)cc23)CC1 [Compound 220]

Second part, the compound before the results:

Compound	IC50 [nM]
N#CC1(c2ccc(-c3cc4c(N5CCN(C(=O)C6CC6)CC5)ccnc4[nH]3)cc2)CC1 [Compound 241]	≤ 100
CCOC(=O)N1CCN(c2ccnc3[nH]c(-c4ccc(C#N)cc4)cc23)CC1 [Compound 53]	≤ 100
Cc1nn(C)cc1-c1cc2c(N3CCN(C(=O)OC4COC4)CC3)ccnc2[nH]1 [Compound 151]	100 to 500
CCOC(=O)N1CCN(c2ccnc3[nH]c(-c4nc(C)cs4)cc23)CC1 [Compound 48]	100 to 500
CCN1CCN(c2ccc(-c3cc4c(N5CCN(C(=O)C6CC6)CC5)ccnc4[nH]3)nc2)CC1 [Compound 424]	≤ 100
Cc1nc(-c2cc3c(N4CCN(C(=O)O[C@@H]5CCC5(F)F)CC4)ccnc3[nH]2)cn1C [Compound 326]	≤ 100
Cn1cc(-c2[nH]c3nccc(N4CCN(C(=O)C5CC5)CC4)c3c2Br)cn1 [Compound 320]	100 to 500
COC1(c2ccc(-c3cc4c(N5CCN(C(=O)OC6COC6)CC5)ccnc4[nH]3)nc2)CCN(C[C@H](C)F)CC1 [Compound 478]	≤ 100
CCOC(=O)N1CCN(c2ccnc3[nH]c(-c4cnn(C(F)F)c4)c(C#N)c23)CC1 [Compound 258]	≤ 100
CC(C)(C#N)c1ccc(-c2cc3c(N4CCN(C(=O)C5CC5)CC4)ccnc3[nH]2)cc1 [Compound 252]	≤ 100
Cc1nc(-c2cc3c(N4CCN(C(=O)OC5COC5)CC4)ccnc3[nH]2)cn1C [Compound 147]	≤ 100
CCOc1ccc(-c2cc3c(N4CCN(C(=O)C5CC5)CC4)ccnc3[nH]2)cc1 [Compound 127]	100 to 500
Cc1c(-c2cnn(C)c2)[nH]c2nccc(N3CCN(C(=O)OC4CCC4)CC3)c12 [Compound 140]	≤ 100
O=C(OC1COC1)N1CCN(c2ccnc3[nH]c(-c4ccccn4)cc23)CC1 [Compound 66]	100 to 500
Cn1cnc(-c2[nH]c3nccc(N4CCN(C(=O)O[C@H]5C[C@@H](F)C5)CC4)c3c2C#N)c1 [Compound 296]	≤ 100
